Patent US20110166149A1, “PTERIDINE DERIVATIVES FOR TREATING RESPIRATORY DISEASE” (TARGEGEN INC., priority 2008, published 2011)
Read-outs that look alike come from different tables or passages of the source.

Test: Inhalation exposure: Compound A concentration in lung, plasma and BALF (Example 2)
Type: in vivo, BALB/c mice
Conditions: for AUC(0-inf) / Cmax / Tmax / AUC(0-t) / concentration at 0.083 h / concentration at 0.25 h / concentration at 0.5 h / concentration at 1 h / concentration at 2 h / concentration at 4 h / concentration at 8 h / concentration at 12 h / concentration at 24 h: male, BALB/c; for AUC(0-inf) / Cmax / Tmax / AUC(0-t): inhaled or intranasal; for AUC(0-t): read-out: AUC(0-24); for concentration at 0.083 h / concentration at 0.25 h / concentration at 0.5 h / concentration at 1 h / concentration at 2 h / concentration at 4 h / concentration at 8 h / concentration at 12 h / concentration at 24 h: mouse, inhaled, mice, 30 min inhalation
Protocol: A series of compositions for pulmonary delivery were prepared by making a 20% suspension of compound A in a 5% tyloxapol solution in water. Particle size reduction was achieved using a colloid mill (magicLAB®, MK module, for 6 hours @ 12,000 rpm, while maintaining a temperature below 50° C.). Samples at 4% w/v compound A were prepared by dilution with DI water.
Low (0.02 mg/L), mid (0.07 mg/L), and high (0.20 mg/L) target aerosol concentrations 0.3% Compound A/0.075% tyloxapol, 0.6% Compound A/0.15% tyloxapol, and 1.5% Compound A/0.375% tyloxapol suspensions were used. These low, mid, and high target formulations were prepared as follows: […]
4% compound A and 1% tyloxapol were removed from refrigeration and approximately 2.25, 4.5, and 12 mL were transferred into clean 50 mL graduated plastic tubes, labeled 0.3% A/0.075% tyloxapol, 0.6% A/0.15% tyloxapol, and 1.5% A/0.375% tyloxapol suspensions and allowed to warm to room temperature. Each was diluted to 20 mL with ultra pure water and vortexed until completely mixed. Each formulation was made the morning of exposure to alleviate any storing/stability issues.
Eighty-seven (87) male BALB/c mice (8 weeks of age on arrival and 18.6-24.6 g on exposure day) were purchased from Charles River Laboratories (Raleigh, N.C.). The three animals with the lowest body weights and the three with the highest body weights were excluded from the study on the day of randomization. The remaining eighty-one (81) animals were assigned to the study. Temperatures and relative humidity (RH) in animal housing areas were within the target range specified in the protocol.
Animals were exposed to one of three concentrations of Compound A aerosols for a target of 30 min.
The actual concentrations of test article in the exposure atmospheres were determined by chemical analysis of timed filter samples collected directly from a nose-only exposure port during exposure. In addition, one impactor sample was obtained to verify particle size distribution (PSD), which is characterized by mass median aerodynamic diameter (MMAD) and geometric standard deviation (GSD). The filters and impactor stages were analyzed chemically by LRRI and are described below.

[1] = 0.15 mg/kg, mouse BALF, aerosol conc. 0.02 mg/L
[2] = 0.27 mg/kg, mouse BALF, aerosol conc. 0.07 mg/L
[3] = 0.7 mg/kg, mouse BALF, aerosol conc. 0.2 mg/L
[4] = mouse lung, aerosol conc. 0.02 mg/L
[5] = mouse lung, aerosol conc. 0.07 mg/L
[6] = mouse lung, aerosol conc. 0.2 mg/L
[7] = BALF, nominal aerosol 0.02 mg/L, read-out: Compound A concentration BALF
[8] = BALF, nominal aerosol 0.07 mg/L, read-out: Compound A concentration BALF
[9] = BALF, nominal aerosol 0.2 mg/L, read-out: Compound A concentration BALF
[10] = lung, nominal aerosol 0.02 mg/L, read-out: Compound A concentration Lung

time course of concentration in lung and BALF (FIGS. 1 and 2, higher concentrations for mice exposed to higher doses): dose dependent | Maximum concentration in the BALF (Group A (0.02 mg/L)): 1190 ng/mL | Maximum concentration in the lung (Group A (0.02 mg/L)): 20.9 µg/g | time of maximum concentration in the BALF (Group A (0.02 mg/L)): 0.25 h | time of maximum concentration in the lung (Group A (0.02 mg/L)): 0.08 h | Maximum concentration in the BALF (Group B (0.07 mg/L)): 2140 ng/mL | time of maximum concentration in the BALF (Group B (0.07 mg/L)): 0.08 h | time of maximum concentration in the lung (Group B (0.07 mg/L)): 2.00 h | Maximum concentration in the BALF (Group C (0.2 mg/L)): 5670 ng/mL | time of maximum concentration in the BALF (Group C (0.2 mg/L)): 0.25 h | time of maximum concentration in the lung (Group C (0.2 mg/L)): 0.50 h | plasma levels (all aerosol concentrations, generally): < LLOQ | AUC(0-inf) [1]: 21700 ng·h/mL | Cmax [1]: 1190 ng/mL | Tmax [1]: 15 min | AUC(0-t) [1]: 8850 ng·h/mL | AUC(0-inf) [2]: 30400 ng·h/mL | Cmax [2]: 2140 ng/mL | Tmax [2]: 4.8 min | AUC(0-t) [2]: 18100 ng·h/mL | AUC(0-inf) [3]: 54300 ng·h/mL | Cmax [3]: 5670 ng/mL | Tmax [3]: 15 min | AUC(0-t) [3]: 37200 ng·h/mL | Cmax [4]: 20900 ng/g | Tmax [4]: 4.8 min | Cmax [5]: 22700 ng/g | Tmax [5]: 120 min | Cmax [6]: 67200 ng/g | Tmax [6]: 30 min | concentration at 0.083 h [7]: 896 ± 41.7 ng/mL | concentration at 0.25 h [7]: 1190 ± 35.4 ng/mL | concentration at 0.5 h [7]: 457 ± 219 ng/mL | concentration at 1 h [7]: 831 ± 288 ng/mL | concentration at 2 h [7]: 813 ± 117 ng/mL | concentration at 4 h [7]: 541 ± 409 ng/mL | concentration at 8 h [7]: 286 ± 156 ng/mL | concentration at 12 h [7]: 296 ± 19.1 ng/mL | concentration at 24 h [7]: 223 ± 91.2 ng/mL | concentration at 0.083 h [8]: 2140 ± 1340 ng/mL | concentration at 0.25 h [8]: 1190 ± 270 ng/mL | concentration at 0.5 h [8]: 1350 ± 559 ng/mL | concentration at 1 h [8]: 1250 ± 359 ng/mL | concentration at 2 h [8]: 930 ± 818 ng/mL | concentration at 4 h [8]: 1310 ± 1010 ng/mL | concentration at 8 h [8]: 800 ± 225 ng/mL | concentration at 12 h [8]: 569 ± 142 ng/mL | concentration at 24 h [8]: 512 ± 128 ng/mL | concentration at 0.083 h [9]: 3150 ± 110 ng/mL | concentration at 0.25 h [9]: 5670 ± 2550 ng/mL | concentration at 0.5 h [9]: 2220 ± 1910 ng/mL | concentration at 1 h [9]: 2570 ± 2030 ng/mL | concentration at 2 h [9]: 3190 ± 2580 ng/mL | concentration at 4 h [9]: 3350 ± 687 ng/mL | concentration at 8 h [9]: 1370 ± 185 ng/mL | concentration at 12 h [9]: 1050 ± 799 ng/mL | concentration at 24 h [9]: 694 ± 56 ng/mL | concentration at 0.083 h [10]: 20900 ± 13200 ng/g | concentration at 0.25 h [10]: 10100 ± 1390 ng/g | concentration at 0.5 h [10]: 11700 ± 8050 ng/g | concentration at 1 h [10]: 11800 ± 7260 ng/g
SMILES: Nc1nc(N)c2nc(-c3cccc(O)c3)c(-c3cccc(O)c3)nc2n1 [Compound A, 6,7-bis(3-hydroxyphenyl)-pteridine-2,4-diamine]
